Data taken from doi:10.1101/2025.07.21.666047v1 (biorxiv, 2025).

How the values were obtained:
[1] = target: CD28:B7.1 (immobilized CD28 and biotinylated B7.1) (Homo sapiens, UniProt P10747); assay: competitive ELISA, chemiluminescent; type: binding
[2] = target: recombinant human CD28 protein (extracellular domain, His-tagged) (Homo sapiens, UniProt P10747); assay: spectral shift; type: binding
Chain of recombinant human CD28 protein (extracellular domain, His-tagged) (P10747 19-152): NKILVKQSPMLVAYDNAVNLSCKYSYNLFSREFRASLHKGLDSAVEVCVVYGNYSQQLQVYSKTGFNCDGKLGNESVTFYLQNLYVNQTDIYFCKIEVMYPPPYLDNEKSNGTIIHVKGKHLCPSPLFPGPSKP

Chain of CD28:B7.1 (immobilized CD28 and biotinylated B7.1) (P10747 19-152 limits assumed): as the sequence (P10747 19-152) above

IC50 [1] [µM]	Kd [2] [µM]	SMILES
32.9 ± 5.74	43.3 ± 16.4	NC(=O)c1ccc(N2CCN(C(=O)c3ncc4n3CCCC4)CC2)cc1 [Z2770993038]
–	49.5 ± 15.3	COc1ccc(C2CC(C)N(CC(=O)NCC(F)(F)F)C2)cc1 (centres unmarked) [Z3889890124]
56.3 ± 11.2	45.8 ± 12.1	CC(C)OC1CCCN(C(=O)c2ccc(-c3nn[nH]n3)s2)C1 (centres unmarked) [Z4390463985]
